Here are results for one compound from patent publication US20230277569A1, “Compositions and Methods for Treating, Ameliorating and/or Preventing Cancer and Kits for the Same” (priority 2022, published 2023).

The structures appear in SMILES notation.

Data set [1] has as its system colon adenocarcinoma cell lines. The following applies: colon adenocarcinoma lines of NCI 60 screen; read-out: IC50 anticancer activity; cited from earlier work.
The target in a further data set is CYP2C8 (Homo sapiens, UniProt P10632). The experiment in a line: CYP inhibition in liver microsomes, CYP2C8. The following applies: human liver microsomes 0.1 mg/mL. Type of data set: in vitro ADME. (Liver microsomes are vesicles of endoplasmic reticulum, rich in cytochrome P450 enzymes.)
CYP2C8, sequence (P10632 whole entry): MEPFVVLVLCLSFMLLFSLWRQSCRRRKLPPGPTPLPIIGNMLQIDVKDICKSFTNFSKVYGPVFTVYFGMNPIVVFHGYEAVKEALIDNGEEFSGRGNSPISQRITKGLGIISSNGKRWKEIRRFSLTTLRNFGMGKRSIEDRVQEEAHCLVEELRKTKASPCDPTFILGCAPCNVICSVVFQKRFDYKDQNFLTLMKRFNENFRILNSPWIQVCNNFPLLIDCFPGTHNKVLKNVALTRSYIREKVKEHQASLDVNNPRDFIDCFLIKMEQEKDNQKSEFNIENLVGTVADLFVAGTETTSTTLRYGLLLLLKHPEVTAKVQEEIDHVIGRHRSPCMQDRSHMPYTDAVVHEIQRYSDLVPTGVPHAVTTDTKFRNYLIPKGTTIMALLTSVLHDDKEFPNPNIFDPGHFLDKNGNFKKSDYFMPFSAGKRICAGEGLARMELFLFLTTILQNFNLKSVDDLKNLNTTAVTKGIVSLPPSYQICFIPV
Another data set concerns the target CYP2C9 (Homo sapiens, UniProt P11712). The data set is described as follows: CYP inhibition in liver microsomes, CYP2C9. Format: in vitro ADME. Conditions: human liver microsomes 0.1 mg/mL.
The next data set deals with Human Kir2.1 (Homo sapiens, UniProt P63252). The data set is described as follows: Ion channel screening, Kir2.1. Type of data set: cell-based. Conditions: n=15, pulse 10, read-out: inhibition of Kir2.1 currents.
Human Kir2.1, sequence (P63252 whole entry): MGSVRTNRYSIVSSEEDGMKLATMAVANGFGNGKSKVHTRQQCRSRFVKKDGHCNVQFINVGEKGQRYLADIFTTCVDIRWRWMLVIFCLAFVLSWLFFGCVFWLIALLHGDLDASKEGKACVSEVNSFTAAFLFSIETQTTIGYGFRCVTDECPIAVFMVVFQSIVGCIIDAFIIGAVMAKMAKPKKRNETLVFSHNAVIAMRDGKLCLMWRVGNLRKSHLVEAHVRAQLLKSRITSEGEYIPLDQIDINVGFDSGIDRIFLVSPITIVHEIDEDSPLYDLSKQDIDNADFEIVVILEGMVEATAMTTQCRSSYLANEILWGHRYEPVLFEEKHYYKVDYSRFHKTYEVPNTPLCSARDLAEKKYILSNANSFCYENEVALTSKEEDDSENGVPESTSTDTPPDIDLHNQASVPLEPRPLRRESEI
The target in a further data set is KCNQ1/minK (Homo sapiens, UniProt P51787). The experiment in a line: Ion channel screening, KCNQ1/minK. Type of data set: cell-based. The following applies: n=16, read-out: inhibition of KCNQ1/mink currents.
The subject of a further data set is NCI 60 cell lines. The following applies: NCI 60 cell line screen; read-out: IC50 anticancer activity; cited from earlier work.

CYP2C9, sequence (P11712 whole entry): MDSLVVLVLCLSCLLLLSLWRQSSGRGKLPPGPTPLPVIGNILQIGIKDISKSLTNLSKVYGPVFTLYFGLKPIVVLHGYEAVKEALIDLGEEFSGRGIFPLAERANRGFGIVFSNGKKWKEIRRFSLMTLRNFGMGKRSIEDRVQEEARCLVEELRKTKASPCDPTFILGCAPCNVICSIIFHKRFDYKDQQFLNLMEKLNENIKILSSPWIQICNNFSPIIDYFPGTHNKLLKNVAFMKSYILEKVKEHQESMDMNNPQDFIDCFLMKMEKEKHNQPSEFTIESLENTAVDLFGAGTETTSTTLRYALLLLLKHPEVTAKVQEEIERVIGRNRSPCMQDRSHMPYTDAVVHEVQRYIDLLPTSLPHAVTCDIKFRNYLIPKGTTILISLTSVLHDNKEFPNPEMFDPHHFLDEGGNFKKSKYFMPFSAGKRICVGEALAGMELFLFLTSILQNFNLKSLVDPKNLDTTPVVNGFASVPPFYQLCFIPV
Procedure for CYP2C8: (§1) After addition of prototypical CYP substrates in 250 μL, samples were incubated for 10 min (CYP1A2, CYP2B6, CYP2C9, and CYP3A4) or 20 min (CYP2C8) at 37° C. in 5% CO2. […] Samples were analyzed for metabolite formation by LC-MS/MS. The results were expressed using the peak area ratio of analyte to internal standard, based on the calibration curves.
(§2) where Range=fitted uninhibited value, s=slope factor, x=inhibitor concentration, y=% control activity.
Procedure for CYP2C9: as §1, §2
Source text for Human Kir2.1: The parameter measured was the maximum outward current evoked on stepping to +60 mV from the holding potential of −80 mV. hERG currents were evoked by a three-pulse protocol where voltage was first stepped to +40 mV for two sec from a holding potential of −80 mV to inactivate hERG channels. The voltage is then stepped back to −50 mV for two sec to evoke a tail current prior to returning to the holding potential for 1 sec. The parameter measured was the amplitude of the 3rd pulse tail current upon stepping back to −50 mV after the step to +40 mV. Human HCN4 currents were evoked by a single pulse from a holding potential of −30 mV to a potential of −110 mV for 4 sec prior to returning to −30 mV. The parameter measured was the maximum inward current evoked upon stepping to −110 mV from the holding potential of −30 mV. Human Kir2.1 currents were evoked from a holding potential of −20 mV by a series of 10 500 msec pulses to −120 mV using a 200 msec interval between pulses. The parameters measured were the amplitudes of the instantaneous inward currents evoked on stepping to −120 mV for the 1st pulse and the maximum inward current at the end of the 10th hyperpolarizing pulse. For all experiments, data were filtered for seal quality, seal drop, and current amplitude.
Source text for KCNQ1/minK: The parameters measured were the maximum inward current evoked on stepping to −20 mV from the 1st and 26th pulse. Human Kv4.3/KChIP2 currents were evoked from a holding potential of −80 mV by a series of four 500 msec pulses to 0 mV using a 1000 msec interval between pulses. The parameter measured was the amplitude of the outward current 50 msec after the onset of the 4th voltage step to 0 mV. Human Cav1.2 currents were evoked by 2 pulses to −10 mV from a holding potential of −100 mV. The parameters measured were the maximum inward currents evoked on stepping to −10 mV from the holding potential of −100 mV for the 1st and 2nd pulse. Human Kv1.5 currents were evoked by a single pulse from a holding potential of −80 mV to a potential of 0 mV for 4 sec before returning to −80 mV. The parameters measured were the maximum amplitude of outward currents evoked at the beginning of the voltage pulse and at the end of the voltage step from −80 mV to 0 mV. Human KCNQ1/minK currents were evoked by a single pulse delivered from a holding potential of −80 mV to +60 mV for 4 sec before returning to −80 mV. The parameter measured was the maximum outward current evoked on stepping to +60 mV from the holding potential of −80 mV. hERG currents were evoked by a three-pulse protocol where voltage was first stepped to +40 mV for two sec from a holding potential of −80 mV to inactivate hERG channels. […]

The term IC50 denotes the concentration that gives 50% inhibition. Consider `CO[C@H]1/C=C\C=C(/C)C(=O)NC2=CC(=O)C(NCCCCCC[P+](c3ccccc3)(c3ccccc3)c3ccccc3)=C(C[C@@H](C)C[C@H](OC)[C@H](O)[C@@H](C)/C=C(\C)[C@@H]1OC(N)=O)C2=O` [Gamitrinib, 17-Demethoxy-17-((6-(triphenylphosphonio)hexyl)amino)geldanamycin], for which the IC50 in data set [1] was 0.35 to 29 µM; on CYP2C8, 8 µM; on CYP2C9 it was 1100 nM; with NCI 60 cell lines, 0.16 to 29 µM. For the same compound, the inhibition at 10 µM at Human Kir2.1 was -7.3 ± 3.4%; at KCNQ1/minK it was 22.5 ± 1.1%.
